Reference: US20100113334A1, “METHODS FOR REDUCING OR PREVENTING TRANSMISSION OF NOSOCOMIAL PATHOGENS IN A HEALTH CARE FACILITY” (priority 2003, published 2010)
“Also recorded” adds a separate entry of the source.

Columns and labels:
[1] = system: clinical isolate VanA strain of E. faecium (VRE); experiment: VRE suppression in a mouse model (Example 1); format: in vivo, mice
Source text: Mice were colonized with a clinical isolate VanA strain of E. faecium (VRE) isolated from a septicemic patient. A single inoculation of 5×10^8 cfu VRE by oral gavage (Day 0) was followed by treatment with vancomycin in the drinking water to maintain colonization. On day 22, each group received the same vancomycin-containing drinking water. […] The control group consisted of five mice, while the ramoplanin group consisted of four mice.

[2] = system: E. faecium C68 (VanB-type clinical VRE isolate); experiment: Minimum-inhibitory concentration for VRE C68; format: cell-based
Procedure: Pathogens Studied: E. faecium C68, a previously described VanB-type clinical VRE isolate, was used for the following murine VRE experiments (Donskey et al., J. Microbial. Meth. 1807: 1-8, 2003). […] Klebsiella pneumoniae P62 is a clinical isolate that produces an SHV type extended-spectrum β-lactamase (ESBL). Candida glabrata A239 is a clinical isolate with a fluconazole minimum-inhibitory concentration of 2 μg/mL.

[3] = system: facultative and aerobic gram-negative bacilli; experiment: Effect on indigenous stool microflora (Example 3), quantitative culture; format: in vivo, mice
Lactobacillus species = experiment: as above; format: in vivo, mice
Procedure: Female CF1 mice (Harlan Sprague-Dawley, Indianapolis) weighing 25-30 g were used in these experiments. In order to minimize the risk of cross-contamination, mice were housed in individual cages with plastic filter tops. […] Quantitative cultures for facultative and aerobic gram-negative bacilli, enterococci, total anaerobes, Bacteroides species, Lactobacillus species, and Clostridium species were performed by plating serially-diluted specimens onto MacConkey agar (Difco Laboratories, Detroit), Enterococcosel agar (Becton Dickinson, Cockeysville, Md.), Brucella agar (Becton Dickinson), Bacteroides bile esculin agar, Rogosa agar, and Egg Yolk agar, respectively. For culture of anaerobes, stool samples were processed inside an anaerobic chamber (Coy Laboratories, Grass Lake, Mich.). Denaturing gradient gel electrophoresis (DGGE) of PCR-amplified bacterial ribosomal RNA genes from stool was performed as described by Donskey et al. (supra).

[4] = system: indigenous stool microflora; experiment: DGGE of PCR-amplified bacterial ribosomal RNA genes from stool (Example 3); format: in vivo, mice; settings: oral ramoplanin 100 μg/mL in drinking water
VRE [5] = experiment: Effect of prior ramoplanin treatment on establishment of VRE colonization (Example 4); format: in vivo, mice; settings: 10^7 CFU VRE 4 hours or 1, 2, 4 days after 7 days of 100 μg/ml; P>0.05 vs controls
Source text: The density of VRE in stool was monitored before and 1 and 4 days after inoculation. Four mice were included in each treatment group.

[6] = Oral administration to healthy male volunteers: absorption and excretion (Example 7, 7.1); format: in vivo, human
Procedure: Both bioassay and HPLC-based assays to assess the absorption, distribution, metabolism, and excretion were utilized in these studies.
(§1) The predetermined dose was reconstituted in 5 mL water per vial, mixed with 50 mL of sweetened, aromatized solution, and immediately administered orally to the subjects.

[7] = system: Gram-negative bacteria (enteric bacteria and Bacteroides spp.); experiment: Activity on stool microflora of healthy volunteers (Example 7.1); format: in vivo, human; settings: 10 days BID
Procedure: as §1
(§2) Faecal microbial concentrations (organisms per gram of faecal matter) were determined at the following timepoints: day-4 (pre-treatment), days 4 and 10 (treatment), and days […] and 24 (follow-up). Tolerability and absorption were also investigated.

[8] = system: Gram-positive bacteria (staphylococci, streptococci, enterococci); experiment: as above; format: in vivo, human
Procedure: as §1, §2

yeast = experiment: as above; format: in vivo, human; settings: 10 days BID
Procedure: as §1, §2

[9] = In vitro interaction with human gastro-intestinal contents
Source text: The in vitro interaction of ramoplanin with human gastro-intestinal contents was studied.

VRE [10] = experiment: Multiple dose study in asymptomatic carriers of gastro-intestinal VRE (Example 7.2); format: in vivo, human; settings: for patients with no detectable VRE: p<0.01; for patients who remained VRE free: Day 14 (seven days after cessation)
Procedure: Patients were assessed by rectal swab on Days 7, 14, and 21 to determine the presence or absence of VRE. […] All VRE isolates were tested for susceptibility to ramoplanin.

[11] = Storage stability of ramoplanin granules for oral solution; format: physicochemical
Procedure: The contents of the packet can be reconstituted with approximately 15-30 mL of water, and the resulting solution either consumed directly, or further diluted with water, cranberry juice, apple juice, or 7-Up prior to drinking. After consumption, the drug may be followed with subsequent amounts of these beverages or with food (e.g., cracker, bread). […] Alternatively, ramoplanin is available as capsules containing pharmaceutically acceptable excipients that are generally regarded as safe.

E faecalis = settings: 30 strains; cited from earlier work
S. aureus (MSSA) = settings: 140 strains; cited from earlier work
S. pneumoniae = settings: 20 strains; cited from earlier work
Bacillus spp. = settings: 10 strains; cited from earlier work
[12] = Day 22, prior to ramoplanin therapy
[13] = Day 36, 7 days after completion of ramoplanin therapy
[14] = 3 days after discontinuation (day 10)
[15] = single oral doses up to 1000 mg, multiple 200, 400 or 800 mg BID 10 days, bioassay and HPLC

Substance: Ramoplanin
- % Mice with VRE [1, 12]: 100%
- Enterococci: VRE [1, 12]: 9.7 log 10 cfu/g faeces
- Enterococci: VRE ([1]; Day 29, completion of ramoplanin therapy): <3.1 log 10 cfu/g faeces
- % Mice with VRE ([1]; Day 29, completion of ramoplanin therapy (15 mg/kg/day in drinking water, with 25 mg/kg/day vancomycin)): 0%
- % Mice with VRE [1, 13]: 100%
- Enterococci: VRE [1, 13]: 8.7 log 10 cfu/g faeces
- VRE concentration per gram of faeces ([1]; after one week of treatment, all animals): < 3.1 log units
- minimum-inhibitory concentration [2]: 0.125 µg/mL
- mean density of total facultative and aerobic gram-negative bacilli in stool [3, 14]: not significantly different from baseline
- mean density of total facultative and aerobic gram-negative bacilli in stool ([3]; day 7 of treatment, P<0.05): increased significantly
- Lactobacillus species in stool (Lactobacillus species; [14]): returned to pre-treatment levels
- Lactobacillus species in stool (Lactobacillus species; ramoplanin treatment, P<0.001): markedly reduced
- stool DGGE patterns, mean similarity indices in comparison to the pre-treatment patterns [4]: 72%
- overgrowth / establishment of VRE stool colonization after prior ramoplanin treatment (VRE [5]): did not facilitate the establishment of stool colonization; also recorded: did not develop significant overgrowth of VRE
- absorption from the human gastro-intestinal tract ([6]; 200, 400 or 800 mg twice a day, ten days): very little, if any, is absorbed; also recorded: No absorption
- faecal concentration, average ([6]; Day 3, 200 mg group): 827 µg/g
- faecal concentration, average ([6]; Day 3, 400 mg group): 1742 µg/g
- faecal concentration, average ([6]; Day 3, 800 mg group): 1901 µg/g
- faecal concentration, average ([6]; Day 10, 200 mg group): 949 µg/g
- faecal concentration, average ([6]; Day 10, 400 mg group): 1417 µg/g
- faecal concentration, average ([6]; Day 10, 800 mg group): 2647 µg/g
- ramoplanin in urine ([6]; day 1 or 5 and pooled urine up to 72-96 after the last dose): no ramoplanin was detected
- ramoplanin in serum ([6]; days 1, 5, 10, 0.5-12 hours after the morning dose, 200, 400 or 800 mg twice a day): not detected
- faecal concentrations post-treatment ([6]; four days post-treatment): remained detectable in some subjects
- ramoplanin in serum/plasma [6, 15]: not detected
- ramoplanin in urine [6, 15]: not detected
- cumulative recovery in faeces ([6]; up to Day 4 post-treatment): 25 % of the administered dose
- effect on faecal Gram-negative bacteria [7]: no effect
- faecal concentrations of staphylococci, streptococci, and enterococci ([8]; by day 10, all subjects): below the level of detection
- effect on faecal Gram-positive bacteria ([8]; first measurement on day 4): marked effect
- effect on faecal yeast (yeast): no effect
- binding to solid components of faeces [9]: bind reversibly
- microbiological activity in faeces [9]: microbiologically active in faeces
- patients with no detectable VRE (VRE [10]; Day 7, 100 mg BID for seven days, 17 of 21 patients): 81.0%
- patients with no detectable VRE (VRE [10]; Day 7, 400 mg BID for seven days, 18 of 20 patients): 90.0%
- patients who remained VRE free (VRE [10]; 100 mg BID, 6 of 21 patients): 28.6%
- patients who remained VRE free (VRE [10]; 400 mg BID, 7 of 17 patients): 41.2%
- number of VRE-free patients (VRE [10]; Day 21): comparable among all treatment groups
- stability of 400 mg granulated powder packets ([11]; refrigerated conditions): stable for at least one year
- shelf life of reconstituted aqueous solution ([11]; stored at refrigerated conditions): 48 h
- Ramoplanin MIC90 (E faecalis): 0.5 µg/mL
- Ramoplanin MIC90 (S. aureus (MSSA)): 0.5 µg/mL
- Ramoplanin MIC90 (S. pneumoniae): <0.03 µg/mL
- Ramoplanin MIC90 (Bacillus spp.): 0.25 µg/mL
